Test results: ChEMBL document CHEMBL1949616, “Synthesis and human telomeric G-quadruplex DNA-binding activity of glucosaminosides of shikonin/alkannin” (Bioorg Med Chem Lett, 2012)
Active and inactive are the calls of the source. No cut-off for these calls is given here.

How the values were obtained:
Assay type in all cases: nucleic-acid assay
Nucleic Acid [1] = assay: Binding affinity to human telomeric G-quadruplex DNA at 200 uM after 1 hr by ESI-TOF-MS analysis
Nucleic Acid [2] = assay: Binding affinity to human telomeric G-quadruplex DNA assessed as bathochromic shift at 10 uM at pH 7.6 by UV-Vis spectrophotometric analysis
Nucleic Acid [3] = assay: Binding affinity to human telomeric G-quadruplex DNA assessed as hypochromic effect at 10 uM at pH 7.6 by UV-Vis spectrophotometric analysis
Nucleic Acid [4] = assay: Binding affinity to human telomeric DNA AGGGTTAGGGT at 200 uM after 1 hr by ESI-TOF-MS analysis

Row | SMILES | Activity (Nucleic Acid [1]) | Activity (Nucleic Acid [2]) | Activity (Nucleic Acid [3]) | Activity (Nucleic Acid [4])
1 | COc1ccc2cc3[n+](cc2c1OC)CCc1cc2c(cc1-3)OCO2 | 58.9% |  |  | 
2 | CC(C)=CC[C@@H](O)C1=CC(=O)c2c(O)ccc(O)c2C1=O | 0% |  |  | 

Next, values leading:

Row | Activity (Nucleic Acid [1]) | Activity (Nucleic Acid [2]) | Activity (Nucleic Acid [3]) | Activity (Nucleic Acid [4]) | SMILES
3 | 39.3% |  |  |  | CC(=O)N[C@H]1[C@H](O[C@@H](CC=C(C)C)C2=CC(=O)c3c(O)ccc(O)c3C2=O)O[C@H](CO)[C@@H](O)[C@@H]1O
4 | 47% | Active | 32.8% | 16% | CC(=O)N[C@H]1[C@H](O[C@H](CC=C(C)C)C2=CC(=O)c3c(O)ccc(O)c3C2=O)O[C@H](CO)[C@@H](O)[C@@H]1O
5 | 0% |  |  |  | CC(C)=CC[C@H](O)C1=CC(=O)c2c(O)ccc(O)c2C1=O
